# Measurements reported in patent US5108747A, “Stable oxpenem-3-carboxylic acids as beta-lactamase inhibitors” (Bayer Aktiengesellschaft, priority 1988, dated 1992).
# “Also recorded” adds a separate entry of the source. Where a name gives a salt, the structure may show the parent alone. Read-outs that look alike come from different tables or passages of the source.
# Columns and labels:
# [1] = Hydrolysis half life at pH 7.4, 37° C. in aqueous phosphate buffer (UV spectroscopy; measure of the stability); assay type: physicochemical; details: for half-life: aqueous phosphate buffer
# [2] = test system: isolated bacterial enzymes (β-lactamases); details: cited from earlier work
# [3] = cited from earlier work
# bacteria [4] = details: literature; cited from earlier work
# [5] = test system: Escherichia coli DSM 1103; experiment: agar diffusion test, Escherichia coli DSM 1103; assay type: cell-based
# From the text: (§1) Certain representatives are just as effective against gram-positive as against gram-negative bacteria and resistant bacteria.
# [6] = test system: Escherichia coli W 3110 R6K (TEM 1); experiment: agar diffusion test, Escherichia coli W 3110 R6K (TEM 1) (β-lactamase-forming); assay type: cell-based
# Staph. aureus 012484/77 = experiment: agar diffusion test, Staph. aureus 012484/77 (penicillin- and cephalosporin-resistant); assay type: cell-based, Staphylococcus aureus
# From the text: as §1
# Staph. aureus DSM 1104 = experiment: agar diffusion test, Staph. aureus DSM 1104; assay type: cell-based, Staphylococcus aureus
# Protocol: The compound IIIe designated as preferred in earlier patent applications (for example in EP 18,305) hydrolyzes in a few minutes and could never be transported efficiently by the blood vessel (pH 7.4, 37° C.) to the site of action undamaged. […] Using Staphylococcus aureus DSM 1104, only an inhibition halo of a few mm was determined in the agar diffusion test after applying 250 μg of IIIe.
# as §1
# bacteria [7] = experiment: antibacterial activity in vitro; assay type: cell-based
# [8] = target: T1, Beta lactamase from E. coli 4787 TEM 1 (Escherichia coli, UniProt P62593); experiment: Degradation of mezlocillin by beta lactamase from E. coli 4787 TEM 1 and its prevention (agar hole test); assay type: biochemical; details: without oxapenem
# T1 construct: preparation not described in the excerpts
# T1 sequence (P62593 24-286 limits assumed): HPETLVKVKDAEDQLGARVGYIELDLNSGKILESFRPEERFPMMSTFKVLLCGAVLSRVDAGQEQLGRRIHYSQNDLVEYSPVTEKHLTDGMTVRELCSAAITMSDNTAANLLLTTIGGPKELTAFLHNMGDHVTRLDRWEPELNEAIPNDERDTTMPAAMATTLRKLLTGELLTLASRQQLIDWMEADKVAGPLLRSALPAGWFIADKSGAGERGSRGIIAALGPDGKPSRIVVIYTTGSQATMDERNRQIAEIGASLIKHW
# Protocol: (§2) Methods: the degradation of mezlocillin was determined with Streptococcus pyogenes W using the agar hole test, the sensitivity limits of which are below 1 mcg/ml.
# (§3) Degradation of mezlocillin by beta lactamase and prevention of this degradation by oxapenem "O"
# [9] = test system: Staphylococcus aureus 25, 455/1; experiment: Decrease in the colony-forming capacity of Staphylococcus aureus 25, 455/1 in liquid nutrient medium; assay type: cell-based; details: control 3.5 × 10^8
# Protocol: The colony-forming capacity of the bacteria was determined by plating out the bacteria on OXOID Iso Sensitest Agar. The two methods are international standard methods.
# Synergistic effect of the combination. Decrease in the colony-forming capacity of Staphylococcus aureus 25, 455/1 by the action of mezlocillin in liquid nutrient medium.
# [10] = test system: Beta lactamase from Pseudomonas aeruginosa W; experiment: Degradation of mezlocillin by beta lactamase from Pseudomonas aeruginosa W and its prevention (agar hole test); assay type: biochemical
# Protocol: as §2, §3
# [11] = target: cephalosporinase of E. cloacae 908 R (Enterobacter cloacae, UniProt P05364); experiment: in vitro inhibition of the cephalosporinase of E. cloacae 908 R; assay type: biochemical; details: relative to formiminothienamycin
# cephalosporinase of E. cloacae 908 R, sequence (P05364 21-381): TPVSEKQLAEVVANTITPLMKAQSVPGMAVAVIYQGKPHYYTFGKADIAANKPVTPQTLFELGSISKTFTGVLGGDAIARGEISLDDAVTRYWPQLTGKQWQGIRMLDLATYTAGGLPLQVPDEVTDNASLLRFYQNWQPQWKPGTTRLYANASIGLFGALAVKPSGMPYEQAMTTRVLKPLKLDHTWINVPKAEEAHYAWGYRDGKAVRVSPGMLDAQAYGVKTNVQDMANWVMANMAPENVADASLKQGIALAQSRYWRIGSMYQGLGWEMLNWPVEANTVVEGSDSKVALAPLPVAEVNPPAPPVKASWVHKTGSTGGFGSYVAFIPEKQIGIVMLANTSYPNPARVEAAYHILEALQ
# From the text: A particular advantage of the oxapenem-3-carboxylic acids according to the invention is that in addition to the abovementioned properties of β-lactamase inhibition they are also themselves antibacterially active per se. It is true that substances having similar properties are known, for example formiminothienamycin (Lit.: Recent Advances in the Chemistry of β-Lactam Antibiotics, ed. by G.I. Gregory, The Royal Society, London, page 279 (1981)). However, the compounds according to the invention show a more rapid, more progressive and more irreversible inhibition of the lactamases with many clinically relevant bacteria. Thus, for example, the cephalosporinase of E. cloacae 908 R is inhibited 780 times more effectively in vitro by the 2-tert-butyl-6-hydroxymethyloxapenem-3-carboxylic acid K salt according to the invention than by formiminothienamycin.
# intact bacteria = details: antibacterial activity or synergism with ampicillin; Morin and Gorman, page 383; cited from earlier work
# similar bacteria = details: 25 μg applied, J. Amer. Chem. Soc. 100, 8004 (1978); cited from earlier work
smiles,measurement,setting,value
CCC1=C(C(=O)O)N2C(=O)C(C)(C)C2O1 (stereo not shown) [Compound IIIc],half-life,[1],1.17 h
CCC1=C(C(=O)O)N2C(=O)C[C@H]2O1 [2-ethyl-1-oxapen-2-em-3-carboxylic acid],inhibition of isolated bacterial enzymes (β-lactamases) (in words),[2],Only an inhibition of isolated bacterial enzymes (β-lactamases) was detectable
same,stability in aqueous medium (in words),[3]; aqueous medium,far too unstable in aqueous medium for antibacterial testing
same,antibacterial efficacy (in words),bacteria [4],virtually ineffective as an antibiotic
CC1(C)S[C@@H]2[C@H](NC(=O)COc3ccccc3)C(=O)N2[C@H]1C(=O)O [Penicillin V],zone of inhibition at 130 µg/disc,"[5]; DSM1103, read-out: inhibition halo diameter",13 mm
same,inhibition (in words),[6]; 130 μg applied,not inhibited
same,inhibition (in words),Staph. aureus 012484/77; 130 μg applied,not inhibited
same,zone of inhibition at 130 µg/disc,"Staph. aureus DSM 1104; Staphylococcus aureus, DSM1104, read-out: inhibition halo diameter",42 mm
CC1=C(C(=O)O)N2C(=O)CC2O1 (stereo not shown) [IIIe],antibacterial efficacy (in words),bacteria [7],virtually ineffective antibacterially
same,Hydrolysis half life (in words),[1],a few minutes
same,inhibition halo (in words),Staph. aureus DSM 1104; 250 μg applied,a few mm
CC1(C)S[C@@H]2[C@H](NC(=O)[C@H](NC(=O)N3CCN(S(C)(=O)=O)C3=O)c3ccccc3)C(=O)N2[C@H]1C(=O)O [mezlocillin],Mezlocillin remaining,[8]; reaction time 0 min,100 µg/mL
same,Mezlocillin remaining,[8]; reaction time 30 min,65 µg/mL
same,Mezlocillin remaining,[8]; reaction time 60 min,43 µg/mL
same,Mezlocillin remaining,[8]; reaction time 240 min,0 µg/mL
same,Number of colonies after an action time of 6 hrs,[9]; 2.0 mcg alone,1.0 × 10^6 N/ml
same,Mezlocillin remaining,"[10]; reaction time 0 min, without oxapenem",100 µg/mL
same,Mezlocillin remaining,"[10]; reaction time 30 min, without oxapenem",35 µg/mL
same,Mezlocillin remaining,"[10]; reaction time 60 min, without oxapenem",0 µg/mL
"CC(C)(C)C1=C(C(=O)O)N2C(=O)C(C)(C)C2O1 (stereo not shown) [Compound IIIa, 2-tert-butyl-6.6-dimethyl-1-oxaoen-2-em-3-carboxylic acid]",half-life,[1],30 h
CC(C)(C)C1=C(C(=O)O)N2C(=O)C(CO)C2O1 (stereo not shown) [2-tert-butyl-6-hydroxymethyloxapenem-3-carboxylic acid K salt],inhibited times more effectively than by formiminothienamycin,[11],780 times
O=C(O)[C@H]1/C(=C/CO)O[C@@H]2CC(=O)N21 [clavulanic acid],Number of colonies after an action time of 6 hrs,[9]; 0.1 mcg alone,1.0 × 10^8 N/ml
same,Mezlocillin remaining,"[10]; reaction time 0 min, with 1 mcg of inhibitor",100 µg/mL
same,Mezlocillin remaining,"[10]; reaction time 0 min, with 10 mcg of inhibitor",100 µg/mL
same,Mezlocillin remaining,"[10]; reaction time 30 min, with 1 mcg of inhibitor",40 µg/mL
same,Mezlocillin remaining,"[10]; reaction time 30 min, with 10 mcg of inhibitor",27 µg/mL
same,Mezlocillin remaining,"[10]; reaction time 60 min, with 1 mcg of inhibitor",0 µg/mL
same,Mezlocillin remaining,"[10]; reaction time 60 min, with 10 mcg of inhibitor",0 µg/mL
CC1=C(C(=O)O)N2C(=O)C(C)(C)C2O1 (stereo not shown) [Compound IIId],half-life,[1],0.833 h
CC(C)(C)C1=C(C(=O)O)N2C(=O)C(CO)C2O1 (stereo not shown) [3-tert-butyl-6-hydroxymethyl-7-oxo-4-oxa-1-azabicyclo[3.2.0]hept-2-ene-2-carboxylic acid],zone of inhibition at 10 µg/disc,"[5]; DSM1103, 10 μg applied, read-out: inhibition halo diameter",30 mm
same,zone of inhibition at 10 µg,"[6]; Escherichia coli, read-out: inhibition halo diameter",29 mm
same,zone of inhibition at 10 µg/disc,"Staph. aureus 012484/77; Staphylococcus aureus, 012484/77, 10 μg applied, read-out: inhibition halo diameter",32 mm
same,zone of inhibition at 10 µg/disc,"Staph. aureus DSM 1104; Staphylococcus aureus, DSM1104, 10 μg applied, read-out: inhibition halo diameter",30 mm
CCC1=C(C(=O)O)N2C(=O)CC2O1 (stereo not shown) [potassium salt of 2-ethyl-1-oxapenem-3-carboxylic acid],testability against intact bacteria (in words),intact bacteria,too unstable for testing the antibacterial activity or the synergism with ampicillin against intact bacteria; also recorded: too unstable for testing synergism with ampicillin against intact bacteria
CC(C)C1=C(C(=O)O)N2C(=O)C(C)(C)C2O1 (stereo not shown) [Compound IIIb],half-life,[1],2 h
C[C@@H](O)[C@H]1C(=O)N2C(C(=O)O)=C(SCCN)C[C@H]12 [thienamycin],stability (in words),[3]; literature,very sensitive to hydrolysis
same,inhibition halo diameter,similar bacteria,28-41 mm
CC(C)(C)C1=C(C(=O)O)N2C(=O)C[C@H]2O1 [2-tert-butyl-1-oxapen-2-em-3-carboxylic acid],zone of inhibition at 200 µg/disc,"[5]; DSM1103, 200 μg applied, read-out: inhibition halo diameter",41 mm
same,zone of inhibition at 200 µg/disc,"Staph. aureus 012484/77; Staphylococcus aureus, 012484/77, 200 μg applied, read-out: inhibition halo diameter",47 mm
same,zone of inhibition at 200 µg/disc,"Staph. aureus DSM 1104; Staphylococcus aureus, DSM1104, 200 μg applied, read-out: inhibition halo diameter",45 mm
